Reference: patent publication US9957268B2, “1H-pyrrolo[2,3,c]pyridin-7(6H)-ones and pyrazolo[3,4-c]pyridin-7(6H)-ones as inhibitors of BET proteins” (Incyte Corporation, priority 2014, dated 2018)
pIC50: −log10 of the molar value.

Assays:
BRD4-BD1 = BRD4-BD1 (Homo sapiens (Human), UniProt O60885); assay: BRD4 AlphaScreen assay (BRD4-BD1); format: binding; conditions: biotin-labeled tetra-acetylated histone H4 peptide
Outline: (§1)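 AlphaScreen displacement at room temperature: 75 min with biotin-H4Ac4 peptide (50 nM) and sub-nanomolar BRD4-BD1 or BD2, then 75 min dark incubation with donor/acceptor beads (2-4 μg/mL). Buffer Tris-HCl pH 7.5 with Tween-20, BSA, DTT; DMSO 1.25% for BD1, 0.83% for BD2. IC50 by curve fitting.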

KMS.12.BM cells = assay: KMS.12.BM cell viability assay (ATP quantitation, Cell Titer-GLO); format: cell-based; conditions: human myeloma cell line, 3 days, concentration required for 50% cell death
Description: KMS. 12.BM cell line (human myeloma) was purchased from JCRB (Osaka, Japan) and maintained in RPMI with 10% FBS culture medium. To measure the cytotoxic activity of the compounds through ATP quantitation, the KMS. 12.BM cells are plated in the RPMI culture medium at 5000 cells/well/per 100 μL into a 96-well polystyrene clear black tissue culture plate (Greiner-bio-one through VWR, NJ), in the presence or absence of a concentration range of test compounds. After 3 days, […] Cell Titer-GLO Luminescent (Promega, Madison, Wis.) cell culture agent is added to each well for 10 minutes at room temperature to stabilize the luminescent signal. This determines the number of viable cells in culture based on quantitation of the ATP present, which signals the presence of metabolically active cells. Luminescence is measured with the Top Count 384 (Packard Bioscience through Perkin Elmer, Boston, Mass.). Compound inhibition is determined relative to cells cultured with no drug and the IC50 is reported as the compound concentration required for 50% cell death.

BRD4-BD2 = BRD4-BD2 (Homo sapiens (Human), UniProt O60885); assay: BRD4 AlphaScreen assay (BRD4-BD2); format: binding; conditions: biotin-labeled tetra-acetylated histone H4 peptide
Outline: as §1

Row | pIC50 (BRD4-BD1) | pIC50 (BRD4-BD2) | Structure (SMILES) | pIC50 (KMS.12.BM cells)
2 | ≥ 7.00 | ≥ 7.00 | CC(O)c1cc(-c2cn(C)c(=O)c3[nH]ccc23)c2c(c1)N(C)C(=O)C(C)(C)O2 (stereo not drawn) [Example 83, 6-(1-hydroxyethyl)-2,2,4-trimethyl-8-(6-methyl-7-oxo-6,7-dihydro-1H-pyrrolo[2,3-c]pyridin-4-yl)-2H-1,4-benzoxazin-3(4H)-one] | 
3 | ≥ 7.00 | ≥ 7.00 | Cn1cc(-c2cc(S(C)(=O)=O)cc3c2NC2(CCC2)C(=O)N3)c2cc[nH]c2c1=O [Example 62, 8′-(6-methyl-7-oxo-6,7-dihydro-1H-pyrrolo[2,3-c]pyridin-4-yl)-6′-(methylsulfonyl)-1′,4′-dihydro-3′H-spiro[cyclobutane-1,2′-quinoxalin]-3′-one] | 
4 | 6.00 to 7.00 | ≥ 7.00 | COc1cc(-c2cn(C)c(=O)c3[nH]ccc23)c2c(c1)N(CC(=O)N1CCN(C)CC1)C(=O)C(C(C)C)O2 (stereo not drawn) [Example 14, 2-isopropyl-6-methoxy-8-(6-methyl-7-oxo-6,7-dihydro-1H-pyrrolo[2,3-c]pyridin-4-yl)-4-[2-(4-methylpiperazin-1-yl)-2-oxoethyl]-2H-1,4-benzoxazin-3(4H)-one] | 
5 | ≥ 7.00 | ≥ 7.00 | CC(O)c1cc(-c2cn(C)c(=O)c3[nH]ccc23)c2c(c1)N(C)C(=O)C(C)(C)O2 (single isomer, unassigned) [Example 83A, 6-(1-hydroxyethyl)-2,2,4-trimethyl-8-(6-methyl-7-oxo-6,7-dihydro-1H-pyrrolo[2,3-c]pyridin-4-yl)-2H-1,4-benzoxazin-3(4H)-one] | 
6 | ≥ 7.00 | ≥ 7.00 | CC(C)C1Oc2c(cccc2-c2cn(C)c(=O)c3[nH]ccc23)NC1=O (stereo not drawn) [Example 2, 2-isopropyl-8-(6-methyl-7-oxo-6,7-dihydro-1H-pyrrolo[2,3-c]pyridin-4-yl)-2H-1,4-benzoxazin-3(4H)-one] | 
7 | ≥ 7.00 | ≥ 7.00 | CNC(=O)c1cc2c(c(-c3cn(C)c(=O)c4[nH]ccc34)c1)OC(C(C)C)C(=O)N2 (stereo not drawn) [Example 20, 2-isopropyl-N-methyl-8-(6-methyl-7-oxo-6,7-dihydro-1H-pyrrolo[2,3-c]pyridin-4-yl)-3-oxo-3,4-dihydro-2H-1,4-benzoxazine-6-carboxamide] | 
8 | 6.00 to 7.00 | 6.00 to 7.00 | COc1cc(-c2cn(C)c(=O)c3[nH]ccc23)c2c(c1)N(CC(=O)O)C(=O)C(C(C)C)O2 (stereo not drawn) [Example 11, [2-isopropyl-6-methoxy-8-(6-methyl-7-oxo-6,7-dihydro-1H-pyrrolo[2,3-c]pyridin-4-yl)-3-oxo-2,3-dihydro-4H-1,4-benzoxazin-4-yl]acetic acid] | 
9 | ≥ 7.00 | ≥ 7.00 | CC(C)C1Oc2c(cc(C(N)=O)cc2-c2cn(C)c(=O)c3[nH]ccc23)NC1=O (stereo not drawn) [Example 41, 2-isopropyl-8-(6-methyl-7-oxo-6,7-dihydro-1H-pyrrolo[2,3-c]pyridin-4-yl)-3-oxo-3,4-dihydro-2H-1,4-benzoxazine-6-carboxamide] | 
10 | ≥ 7.00 | ≥ 7.00 | COc1cc2c(c(-c3cn(C)c(=O)c4[nH]ccc34)c1)OC(C(C)C)C(=O)N2 (single isomer, unassigned) [Example 9A, 2-isopropyl-6-methoxy-8-(6-methyl-7-oxo-6,7-dihydro-1H-pyrrolo[2,3-c]pyridin-4-yl)-2H-1,4-benzoxazin-3(4H)-one] | 
11 | ≥ 7.00 | ≥ 7.00 | Cn1cc(-c2cc(S(C)(=O)=O)cc3c2OC2(CC2)C(=O)N3)c2cc[nH]c2c1=O [Example 57, 8-(6-methyl-7-oxo-6,7-dihydro-1H-pyrrolo[2,3-c]pyridin-4-yl)-6-(methylsulfonyl)spiro[1,4-benzoxazine-2,1′-cyclopropan]-3(4H)-one] | 
12 | ≥ 7.00 | ≥ 7.00 | CN1C(=O)C(C)(C)Oc2c(-c3cn(C)c(=O)c4[nH]ccc34)cc(S(C)(=O)=O)cc21 [Example 75, 2,2,4-trimethyl-8-(6-methyl-7-oxo-6,7-dihydro-1H-pyrrolo[2,3-c]pyridin-4-yl)-6-(methylsulfonyl)-2H-1,4-benzoxazin-3(4H)-one] | 
13 | 6.00 to 7.00 | ≥ 7.00 | CC(C)C1Oc2c(-c3cn(C)c(=O)c4[nH]ccc34)cc(C#N)cc2N(C)C1=O (stereo not drawn) [Example 18, 2-isopropyl-4-methyl-8-(6-methyl-7-oxo-6,7-dihydro-1H-pyrrolo[2,3-c]pyridin-4-yl)-3-oxo-3,4-dihydro-2H-1,4-benzoxazine-6-carbonitrile] | 
14 | 6.00 to 7.00 | ≥ 7.00 | CNC(=O)CN1C(=O)C(C(C)C)Oc2c(-c3cn(C)c(=O)c4[nH]ccc34)cc(OC)cc21 (stereo not drawn) [Example 12, 2-[2-isopropyl-6-methoxy-8-(6-methyl-7-oxo-6,7-dihydro-1H-pyrrolo[2,3-c]pyridin-4-yl)-3-oxo-2,3-dihydro-4H-1,4-benzoxazin-4-yl]-N-methylacetamide] | 
15 | ≥ 7.00 | ≥ 7.00 | CC(C)C1Oc2c(cc(S(C)(=O)=O)cc2-c2cn(C)c(=O)c3[nH]ncc23)NC1=O (stereo not drawn) [Example 84, 2-isopropyl-8-(6-methyl-7-oxo-6,7-dihydro-1H-pyrazolo[3,4-c]pyridin-4-yl)-6-(methylsulfonyl)-2H-1,4-benzoxazin-3(4H)-one] | 
16 | 6.00 to 7.00 | ≥ 7.00 | CC(C)C1Oc2c(-c3cn(C)c(=O)c4[nH]ccc34)cc(C(N)=O)cc2N(C)C1=O (stereo not drawn) [Example 19, 2-isopropyl-4-methyl-8-(6-methyl-7-oxo-6,7-dihydro-1H-pyrrolo[2,3-c]pyridin-4-yl)-3-oxo-3,4-dihydro-2H-1,4-benzoxazine-6-carboxamide] | 
17 | ≥ 7.00 | ≥ 7.00 | Cn1cc(-c2cc(S(=O)(=O)N3CCCCC3)cc3c2OC(C)(C)C(=O)N3)c2cc[nH]c2c1=O [Example 72, 2,2-dimethyl-8-(6-methyl-7-oxo-6,7-dihydro-1H-pyrrolo[2,3-c]pyridin-4-yl)-6-(piperidin-1-ylsulfonyl)-2H-1,4-benzoxazin-3(4H)-one] | 
18 | ≥ 7.00 | ≥ 7.00 | COc1cc2c(c(-c3cn(C)c(=O)c4[nH]ccc34)c1)OC(C1CCCC1)C(=O)N2 (single isomer, unassigned) [Example 35A, 2-Cyclopentyl-6-methoxy-8-(6-methyl-7-oxo-6,7-dihydro-1H-pyrrolo[2,3-c]pyridin-4-yl)-2H-1,4-benzoxazin-3(4H)-one] | 
19 | ≥ 7.00 | ≥ 7.00 | COc1cc2c(c(-c3cn(C)c(=O)c4[nH]ccc34)c1)OC(C)(C)C(=O)N2 [Example 27, 6-methoxy-2,2-dimethyl-8-(6-methyl-7-oxo-6,7-dihydro-1H-pyrrolo[2,3-c]pyridin-4-yl)-2H-1,4-benzoxazin-3(4H)-one] | 

Row | Structure (SMILES) | pIC50 (BRD4-BD1) | pIC50 (BRD4-BD2) | pIC50 (KMS.12.BM cells)
20 | CC(=O)c1cc2c(c(-c3cn(C)c(=O)c4[nH]ccc34)c1)OC(C(C)C)C(=O)N2 (stereo not drawn) [Example 49, 6-acetyl-2-isopropyl-8-(6-methyl-7-oxo-6,7-dihydro-1H-pyrrolo[2,3-c]pyridin-4-yl)-2H-1,4-benzoxazin-3(4H)-one] | ≥ 7.00 | ≥ 7.00 | 
21 | CC(C)C1Oc2c(cc(S(C)(=O)=O)cc2-c2cn(C)c(=O)c3[nH]ccc23)NC1=O (stereo not drawn) [Example 44, 2-isopropyl-8-(6-methyl-7-oxo-6,7-dihydro-1H-pyrrolo[2,3-c]pyridin-4-yl)-6-(methylsulfonyl)-2H-1,4-benzoxazin-3(4H)-one] | ≥ 7.00 | ≥ 7.00 | 
22 | COc1cc2c(c(-c3cn(C)c(=O)c4[nH]ncc34)c1)OC(C1CCCC1)C(=O)N2 (single isomer, unassigned) [Example 42A, 2-cyclopentyl-6-methoxy-8-(6-methyl-7-oxo-6,7-dihydro-1H-pyrazolo[3,4-c]pyridin-4-yl)-2H-1,4-benzoxazin-3(4H)-one] | ≥ 7.00 | ≥ 7.00 | 
